Assay results taken from PubChem BioAssay (NCI).
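Briefly, cells in 96-well plates were exposed to five compound concentrations for 48 h, and endpoints were estimated by linear interpolation. At the GI50, growth is halved. TGI marks complete inhibition of growth.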

Experiments:
Experiment in all cases: DTP human tumour cell line panel, 48 h
SK-MEL-2 melanoma = tested on: SK-MEL-2 melanoma
NCI-H460 lung = tested on: NCI-H460 lung
786-0 renal = tested on: 786-0 renal
ACHN renal = tested on: ACHN renal
HL-60(TB) leukemia = tested on: HL-60(TB) leukemia
LOX IMVI melanoma = tested on: LOX IMVI melanoma
SW-620 colon = tested on: SW-620 colon
CAKI-1 renal = tested on: CAKI-1 renal
OVCAR-3 ovarian = tested on: OVCAR-3 ovarian
MCF7 breast = tested on: MCF7 breast

| Compound | GI50 (SK-MEL-2 melanoma) | TGI (SK-MEL-2 melanoma) | GI50 (NCI-H460 lung) | TGI (NCI-H460 lung) | GI50 (786-0 renal) | TGI (786-0 renal) | GI50 (ACHN renal) | TGI (ACHN renal) | GI50 (HL-60(TB) leukemia) | TGI (HL-60(TB) leukemia) | GI50 (LOX IMVI melanoma) | TGI (LOX IMVI melanoma) | GI50 (SW-620 colon) | TGI (SW-620 colon) | GI50 (CAKI-1 renal) | TGI (CAKI-1 renal) | GI50 (OVCAR-3 ovarian) | TGI (OVCAR-3 ovarian) | GI50 (MCF7 breast) | TGI (MCF7 breast) |
| --- | --- | --- | --- | --- | --- | --- | --- | --- | --- | --- | --- | --- | --- | --- | --- | --- | --- | --- | --- | --- |
| CCCCCCC1CCCCN1C(c1ccccc1)C(O)c1ccccc1 (stereo unspecified) | 5.33 µM | 20.5 µM | 3.92 µM | 13.6 µM | 3.97 µM | 13.6 µM | 10 µM | 21.6 µM | 3010 nM | 7.01 µM | 3.04 µM | 12.4 µM | 5350 nM | 18.4 µM | 3.72 µM | 14.6 µM | 8.49 µM | 20.8 µM | 3.78 µM | 14.8 µM |
| O=[N+]([O-])/C(=C/C=C/c1ccccc1)c1ccccc1 | 1.67 µM | 3.93 µM | 3.3 µM | 11.3 µM | 1.81 µM | 3.4 µM | 2.14 µM | 5 µM | 1090 nM | 3.55 µM | 1.67 µM | 3.29 µM | 1790 nM | 3.67 µM | 0.805 µM | 3.06 µM | 1.85 µM | 3.29 µM | 1.48 µM | 4.23 µM |
| CN(Cc1cnc2nc(N)nc(N)c2n1)c1c(Cl)cc(C(=O)NC(CCC(=O)O)C(=O)O)cc1Br (stereo unspecified) | < 0.01 µM | > 100 µM | < 0.01 µM | > 100 µM | < 0.01 µM | > 100 µM | < 0.01 µM | > 100 µM | < 10 nM | > 100 µM | < 0.01 µM | > 100 µM | < 10 nM | > 100 µM | < 0.01 µM | 0.0671 µM | < 0.01 µM | > 100 µM | < 0.01 µM | > 100 µM |
| CCCC/C=C1/CCC(CN(C)C)C1=O (stereo unspecified) |  | 10.1 µM | 9.87 µM | 26.8 µM |  | 2.9 µM |  | 4.6 µM |  | 4.63 µM |  | 2.91 µM |  | 2.88 µM |  | 1.78 µM |  | 3.72 µM |  | 4.34 µM |
| O=C(/C=C/c1ccccn1)c1ccccc1 | 8.32 µM | 21 µM | 4.44 µM | 18.1 µM | 2.84 µM | 10.7 µM | 2.44 µM | 6.2 µM | 1880 nM | 6.75 µM | 1.63 µM | 3.08 µM | 2020 nM | 4.1 µM | 3.28 µM | 12.3 µM | 9.5 µM | 21.4 µM | 2.07 µM | 8.46 µM |
| COc1cc(C(=O)/C=C/c2c(C)n([O-])c3ccc(Cl)cc3[n+]2=O)cc(OC)c1OC | 17 µM | 81.3 µM | 12.5 µM | 36.6 µM | 13.2 µM | 92.4 µM | 4.37 µM | 18 µM | 5760 nM | 23.5 µM | 5.78 µM | > 100 µM | 2570 nM | 11.7 µM | 10.3 µM | > 100 µM | 1.76 µM | 7.98 µM | 3.37 µM | > 100 µM |
| Cc1ncc([N+](=O)[O-])n1CCOc1ccc(C(=O)/C=C/c2ccc(C(F)(F)F)cc2)cc1 | 3.43 µM | 13.6 µM | 4.09 µM | 15 µM | 1.87 µM | 3.54 µM | 2.77 µM | 9.14 µM | 2910 nM | 11.4 µM | 2.21 µM | 5.6 µM | 1760 nM | 4.03 µM | 2 µM | 5.25 µM | 2.37 µM | 5.7 µM | 1.7 µM | 4.01 µM |
| O=C([CH-]C(=O)c1ccccc1)c1ccccc1.[CH2-]C.[CH2-]C.[Tl+3] | 31.6 µM | > 92.4 µM | 10.8 µM | > 100 µM | 19.2 µM | > 100 µM | 24.5 µM | 98.7 µM | 2990 nM | 21.6 µM | 10.4 µM | 54.7 µM | 26500 nM | > 100 µM | 27.2 µM | > 96.3 µM | 28 µM | > 100 µM | 7.73 µM | > 100 µM |
| Cn1cc(C2=C(c3cccc([N+](=O)[O-])c3)C(=O)NC2=O)c2ccccc21 | 5.24 µM | 17.2 µM | 8.52 µM | > 25 µM | 6.45 µM | > 25 µM | 4.88 µM | > 25 µM | 7140 nM | 19.1 µM | 3.94 µM | > 25 µM | 11400 nM | > 25 µM | 5.5 µM | > 25 µM | 5.33 µM | > 22 µM | 3.17 µM | > 25 µM |
| CC(C)OC(=O)c1cc(NC(=S)OC(C)C)ccc1Cl |  | 51.6 µM |  | > 55.3 µM |  | > 55.9 µM |  | > 59.7 µM |  | > 31.6 µM |  | 31.2 µM |  | > 64.6 µM |  | 35.3 µM |  | 48.3 µM |  | > 53 µM |
